Experimental data reported in patent publication US9260429B2, “Pyrido[3,4-B]indoles and methods of use” (Medivation Technologies, Inc., priority 2008, dated 2016).

How the values were obtained:
[1] = target: T1, human recombinant serotonin (5-Hydroxytryptamine) 5-HT2A receptor (Homo sapiens, UniProt P28223); assay: Serotonin 5-HT2A radioligand binding ([3H]Ketanserin); details: 1 h; read-out: Percent Inhibition of ligand binding Serotonin (1 μM ligand concentration) 5-HT2A
T1 construct: expressed in transfected cells; host or cells: CHO-K1 cells
Experimental: To evaluate in radioligand binding assays the activity of compounds of the invention, human recombinant serotonin (5-Hydroxytryptamine) 5-HT2A receptor expressed in Chinese hamster ovary (CHO-K1) cells (Bonhaus, D. W. et al. Br. J. Pharmacol. 115:622, 1995; Saucier, C. and Albert, P. R., J. Neurochem. 68:1998, 1997) in a 50 mM Tris-HCl buffer, pH 7.4, was used. Compounds of the invention were incubated with 0.5 nM [^3H]Ketanserin for 60 minutes at 25° C. Non-specific binding was estimated in the presence of 1 μM Mianserin. Receptor proteins were filtered and washed, the filters were then counted to determine [^3H]Ketanserin specifically bound. Compounds were screened at 1 μM or lower, using 1% DMSO as vehicle. Biochemical assay results are presented as the percent inhibition of specific binding in Table 5.

[2] = target: T2, human recombinant histamine H2 receptor (Homo sapiens, UniProt P25021); assay: Histamine H2 radioligand binding ([125I]Aminopotentidine); details: 1 μM; inhibition of specific [125I]Aminopotentidine binding; read-out: Binding data (Percentage Inhibition) Histamine Binding (1 μM) H2
T2 construct: expressed in transfected cells; host or cells: CHO-K1 cells
Experimental: To evaluate in radioligand binding assays the activity of compounds of the invention, human recombinant histamine H2 receptor expressed in Chinese hamster ovary (CHO) K1 cells (Ruat, M., Proc. Natl. Acad. Sci. USA. 87(5):1658, 1990) in a 50 mM Phosphate buffer, pH 7.4 was used. Compounds of the invention were incubated with 0.1 nM [^125I]Aminopotentidine for 120 minutes at 25° C. Non-specific binding was estimated in the presence of 3 μM Tiotidine. Receptor proteins were filtered and washed, the filters were then counted to determine [^125I]Aminopotentidine specifically bound. Compounds were screened at 1 μM or lower, using 1% DMSO as vehicle. Biochemical assay results are presented as the percent inhibition of specific binding in Table 3.

[3] = target: T3, human recombinant dopamine D2L receptor (Homo sapiens, UniProt P14416); assay: Dopamine D2L radioligand binding ([3H]Spiperone); details: 2 h, 1 μM ligand conc.; read-out: Percent Inhibition of ligand binding Dopamine (1 μM ligand conc.) D2L
T3 construct: expressed in transfected cells; host or cells: CHO cells
Experimental: To evaluate in radioligand binding assays the activity of compounds of the invention, human recombinant dopamine D2L receptor expressed in Chinese hamster ovary (CHO) cells (Grandy, D. K. et al. Proc. Natl. Acad. Sci. USA. 86:9762, 1989; Hayes, G. et al., Mol. Endocrinol. 6:920, 1992) in a modified Tris-HCl buffer (50 mM Tris-HCl, pH 7.4, 1.4 mM Ascorbic Acid, 0.001% BSA, 150 mM NaCl) was used. Compounds of the invention were incubated with 0.16 nM [^3H]Spiperone for 120 minutes at 25° C. Non-specific binding was estimated in the presence of […] Haloperidol. Receptor proteins were filtered and washed, the filters were then counted to determine [^3H]Spiperone specifically bound. Compounds were screened at 1 μM or lower, using 1% DMSO as vehicle. Biochemical assay results are presented as the percent inhibition of specific binding in Table 4.

[4] = target: T4, human recombinant serotonin (5-Hydroxytryptamine) 5-HT7 receptor (Homo sapiens, UniProt P34969); assay: Serotonin 5-HT7 radioligand binding ([3H]LSD); details: 2 h; read-out: Percent Inhibition of ligand binding Serotonin (1 μM ligand concentration) 5-HT7
T4 construct: expressed in transfected cells; host or cells: CHO cells
Experimental: To evaluate in radioligand binding assays the activity of compounds of the invention, human recombinant serotonin (5-Hydroxytryptamine) 5-HT7 receptor expressed in Chinese hamster ovary (CHO) cells (Roth, B. L. et al., J. Pharmacol. Exp. Ther. 268:1403, 1994; Shen, Y. et al., J. Biol. Chem. 268:18200, 1993) in a modified Tris-HCl buffer (50 mM Tris-HCl, pH 7.4, 10 mM MgCl2, 0.5 mM EDTA) was used. Compounds of invention were incubated with 5.5 nM [^3H]Lysergic acid diethylamide (LSD) for 2 hours at 25° C. Non-specific binding was estimated in the presence of […] Serotonin (5-HT). Receptor proteins were filtered and washed, the filters were then counted to determine [^3H]LSD specifically bound. Compounds were screened at 1 μM or lower, using 1% DMSO as vehicle. Biochemical assay results are presented as the percent inhibition of specific binding in Table 5.

[5] = target: T5, human recombinant serotonin (5-Hydroxytryptamine) 5-HT2C receptor (Homo sapiens, UniProt P28335); assay: Serotonin 5-HT2C radioligand binding ([3H]Mesulergine); details: 1 h; read-out: Percent Inhibition of ligand binding Serotonin (1 μM ligand concentration) 5-HT2C
T5 construct: expressed in transfected cells; host or cells: CHO-K1 cells
T5 sequence (P28335 33-458): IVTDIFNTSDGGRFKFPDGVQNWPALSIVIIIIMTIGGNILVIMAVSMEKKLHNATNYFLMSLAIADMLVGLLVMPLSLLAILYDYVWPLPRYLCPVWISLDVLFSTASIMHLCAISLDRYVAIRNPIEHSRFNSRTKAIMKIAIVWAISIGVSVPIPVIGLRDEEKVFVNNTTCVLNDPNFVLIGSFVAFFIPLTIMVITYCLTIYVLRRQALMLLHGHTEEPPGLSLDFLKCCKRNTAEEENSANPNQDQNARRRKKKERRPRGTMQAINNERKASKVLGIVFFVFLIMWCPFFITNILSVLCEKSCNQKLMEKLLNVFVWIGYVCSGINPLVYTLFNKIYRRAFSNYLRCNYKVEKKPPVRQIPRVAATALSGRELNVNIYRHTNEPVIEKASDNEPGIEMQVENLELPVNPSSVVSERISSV
Experimental: Compounds of the invention were incubated with 1 nM [^3H]Mesulergine for 60 minutes at 25° C. Non-specific binding was estimated in the presence of 1 μM Mianserin. Receptor proteins were filtered and washed, the filters were then counted to determine [^3H]Mesulergine specifically bound. […] Biochemical assay results are presented as the percent inhibition of specific binding in Table 5.

[6] = target: T6, human recombinant histamine H1 receptor (Homo sapiens, UniProt P35367); assay: Histamine H1 radioligand binding ([3H]Pyrilamine); details: 1 μM; read-out: Binding data (Percentage Inhibition) Histamine Binding (1 μM) H1
T6 construct: expressed in transfected cells; host or cells: CHO cells
Experimental: To evaluate in radioligand binding assays the activity of compounds of the invention, human recombinant histamine H1 receptor expressed in Chinese hamster ovary (CHO) cells (De Backer, M. D. et al., Biochem. Biophys. Res. Comm. 197(3):1601, 1993) in a modified Tris-HCl buffer (50 mM Tris-HCl, pH 7.4, 2 mM MgCl2, 100 mM NaCl, 250 mM Sucrose) was used. Compounds of the invention were incubated with 1.2 nM [^3H]Pyrilamine for 180 minutes at 25° C. Non-specific binding was estimated in the presence of 1 μM pyrilamine. Receptor proteins were filtered and washed, the filters were then counted to determine [^3H]Pyrilamine specifically bound. […] Biochemical assay results are presented as the percent inhibition of specific binding in Table 3.

[7] = target: T7, human recombinant serotonin (5-Hydroxytryptamine) 5-HT6 receptor (Homo sapiens, UniProt P50406); assay: Serotonin 5-HT6 radioligand binding ([3H]LSD); details: 2 h; read-out: Percent Inhibition of ligand binding Serotonin (1 μM ligand concentration) 5-HT6
T7 construct: expressed in transfected cells; host or cells: human HeLa cells
Experimental: To evaluate in radioligand binding assays the activity of compounds of the invention, human recombinant serotonin (5-Hydroxytryptamine) 5-HT6 receptor expressed in human HeLa cells (Monsma, F. J. Jr. et al., Mol. Pharmacol. 43:320, 1993) in a modified Tris-HCl buffer (50 mM Tris-HCl, pH 7.4, 150 mM NaCl, 2 mM Ascorbic Acid, 0.001% BSA) was used. Compounds of the invention were incubated with 1.5 nM [3H]Lysergic acid diethylamide (LSD) for 120 minutes at 37° C. Non-specific binding was estimated in the presence of […] Serotonin (5-HT). Receptor proteins were filtered and washed, the filters were then counted to determine [3H]LSD specifically bound. Compounds were screened at 1 μM or lower, using 1% DMSO as vehicle. Biochemical assay results are presented as the percent inhibition of specific binding in Table 5.

T3 sequence (P14416 whole entry): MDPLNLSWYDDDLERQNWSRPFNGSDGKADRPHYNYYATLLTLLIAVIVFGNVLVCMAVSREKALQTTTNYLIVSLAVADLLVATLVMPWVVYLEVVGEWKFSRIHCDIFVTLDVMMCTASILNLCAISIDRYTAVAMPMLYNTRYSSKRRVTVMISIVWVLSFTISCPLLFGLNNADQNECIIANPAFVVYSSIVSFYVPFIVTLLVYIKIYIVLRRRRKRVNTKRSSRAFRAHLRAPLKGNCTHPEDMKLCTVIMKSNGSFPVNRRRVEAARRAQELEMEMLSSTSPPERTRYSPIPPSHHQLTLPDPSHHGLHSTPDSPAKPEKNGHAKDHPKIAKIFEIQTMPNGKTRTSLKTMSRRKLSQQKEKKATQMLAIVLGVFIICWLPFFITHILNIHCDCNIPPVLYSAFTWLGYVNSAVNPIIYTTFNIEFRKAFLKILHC
T4 sequence (P34969 whole entry): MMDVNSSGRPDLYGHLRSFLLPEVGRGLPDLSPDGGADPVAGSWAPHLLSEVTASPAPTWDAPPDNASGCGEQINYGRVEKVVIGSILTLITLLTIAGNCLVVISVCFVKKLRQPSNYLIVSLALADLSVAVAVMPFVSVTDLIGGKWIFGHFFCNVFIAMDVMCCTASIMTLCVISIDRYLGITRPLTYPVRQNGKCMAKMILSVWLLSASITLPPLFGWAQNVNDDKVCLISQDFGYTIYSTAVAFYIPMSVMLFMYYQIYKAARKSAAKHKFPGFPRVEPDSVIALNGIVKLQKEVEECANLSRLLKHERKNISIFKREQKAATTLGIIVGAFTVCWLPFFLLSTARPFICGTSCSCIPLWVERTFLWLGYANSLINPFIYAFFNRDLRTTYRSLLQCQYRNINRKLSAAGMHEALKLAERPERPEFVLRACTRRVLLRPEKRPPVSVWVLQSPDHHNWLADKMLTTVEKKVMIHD
T1 sequence (P28223 whole entry): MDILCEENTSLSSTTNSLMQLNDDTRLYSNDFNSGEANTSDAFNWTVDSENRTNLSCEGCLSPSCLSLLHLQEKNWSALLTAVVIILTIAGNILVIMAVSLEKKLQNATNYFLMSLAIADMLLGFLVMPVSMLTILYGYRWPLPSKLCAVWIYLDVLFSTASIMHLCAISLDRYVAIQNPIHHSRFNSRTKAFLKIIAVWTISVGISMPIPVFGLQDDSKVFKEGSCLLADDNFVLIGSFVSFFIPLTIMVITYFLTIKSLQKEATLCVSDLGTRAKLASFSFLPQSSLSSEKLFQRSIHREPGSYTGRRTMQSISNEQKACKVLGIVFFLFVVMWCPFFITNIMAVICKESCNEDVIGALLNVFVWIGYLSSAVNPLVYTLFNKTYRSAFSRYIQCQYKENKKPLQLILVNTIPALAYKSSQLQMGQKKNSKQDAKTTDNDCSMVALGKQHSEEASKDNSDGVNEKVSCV
T7 sequence (P50406 whole entry): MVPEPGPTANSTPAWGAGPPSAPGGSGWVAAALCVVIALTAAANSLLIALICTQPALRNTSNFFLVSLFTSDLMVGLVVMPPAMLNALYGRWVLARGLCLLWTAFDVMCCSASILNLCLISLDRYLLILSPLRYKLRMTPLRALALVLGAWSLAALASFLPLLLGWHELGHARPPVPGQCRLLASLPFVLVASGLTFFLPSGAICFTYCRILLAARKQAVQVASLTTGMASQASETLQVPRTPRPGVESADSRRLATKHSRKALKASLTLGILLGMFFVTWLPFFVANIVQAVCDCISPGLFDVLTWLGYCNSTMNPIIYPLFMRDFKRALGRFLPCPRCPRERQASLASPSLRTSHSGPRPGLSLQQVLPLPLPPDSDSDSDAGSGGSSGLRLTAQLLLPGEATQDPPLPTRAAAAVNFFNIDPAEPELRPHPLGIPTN
T2 sequence (P25021 whole entry): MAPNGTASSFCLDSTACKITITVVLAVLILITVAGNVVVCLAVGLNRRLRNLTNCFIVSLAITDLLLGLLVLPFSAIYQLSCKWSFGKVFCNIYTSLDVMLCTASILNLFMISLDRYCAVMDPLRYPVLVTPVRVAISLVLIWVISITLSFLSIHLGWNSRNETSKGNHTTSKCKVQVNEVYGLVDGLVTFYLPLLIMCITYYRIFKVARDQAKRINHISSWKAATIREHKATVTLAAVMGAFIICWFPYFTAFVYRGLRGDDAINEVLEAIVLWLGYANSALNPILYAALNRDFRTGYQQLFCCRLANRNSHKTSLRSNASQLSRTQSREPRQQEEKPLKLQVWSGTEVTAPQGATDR
T6 sequence (P35367 whole entry): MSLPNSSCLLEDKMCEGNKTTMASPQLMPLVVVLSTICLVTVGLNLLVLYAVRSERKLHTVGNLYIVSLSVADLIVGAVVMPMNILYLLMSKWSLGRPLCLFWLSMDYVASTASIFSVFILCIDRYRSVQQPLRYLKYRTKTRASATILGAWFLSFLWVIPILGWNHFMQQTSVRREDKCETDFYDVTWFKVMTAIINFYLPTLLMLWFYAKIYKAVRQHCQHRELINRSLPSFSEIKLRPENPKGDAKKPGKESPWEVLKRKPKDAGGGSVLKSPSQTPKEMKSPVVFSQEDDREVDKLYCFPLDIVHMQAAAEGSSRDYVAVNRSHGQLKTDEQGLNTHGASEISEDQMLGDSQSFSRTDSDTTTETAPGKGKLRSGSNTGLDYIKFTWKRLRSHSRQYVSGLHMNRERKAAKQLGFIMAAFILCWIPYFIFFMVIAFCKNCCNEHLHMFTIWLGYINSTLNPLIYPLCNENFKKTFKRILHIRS

SMILES | inhibition at 1 µM [1] [%] | inhibition at 1 µM [2] [%] | inhibition at 1 µM [3] [%] | inhibition at 1 µM [4] [%] | inhibition at 1 µM [5] [%] | inhibition at 1 µM [6] [%] | inhibition at 1 µM [7] [%]
COc1ccc(/C(C)=C/n2c3c(c4cc(Cl)ccc42)CCN(C)C3)cc1F [Compound 122, 6-chloro-9-(2-(3-fluoro-4-methoxyphenyl)prop-1-enyl)-2-methyl-2,3,4,9-tetrahydro-1H-pyrido[3,4-b]indole] | 95 | 56 | 21 | 95 | 102 | 13 | 36
Cc1ccc2c(c1)c1c(n2C#Cc2ccc(Cl)cc2)CN(C)CC1 [Compound 130, 9-((4-chlorophenyl)ethynyl)-2,6-dimethyl-2,3,4,9-tetrahydro-1H-pyrido[3,4-b]indole] | 91 | 51 | -3 | 22 | 95 | 5 | 7
COc1ccc(C#Cn2c3c(c4cc(Cl)ccc42)CCN(C)C3)cc1F [Compound 155, 6-chloro-9-((3-fluoro-4-methoxyphenyl)ethynyl)-2-methyl-2,3,4,9-tetrahydro-1H-pyrido[3,4-b]indole] | 85 | 49 | 12 | 19 | 95 | 2 | 14
C/C(=C/n1c2c(c3cc(C)ccc31)CCN(C)C2C)c1ccc(Cl)cc1Cl (centres unmarked) [Compound 169] | 80 | 50 | 5 | 78 | 91 | 20 | 24
CCC1c2c(c3cc(C)ccc3n2/C=C(\C)c2ccc(Cl)cc2Cl)CCN1C (centres unmarked) [Compound 170] | 96 | 60 | 1 | 74 | 98 | 27 | 36
